Laboratory results published in patent US12116343B2, “Inhibitors of APOL1 and methods of using same” (Vertex Pharmaceuticals Incorporated, priority 2020, dated 2024).
Like-named read-outs stand apart in the source and are kept apart here.

Biological target: T1, G1 APOL1 (Homo sapiens, UniProt O14791, I384M/S342G)
T1 construct: expressed in transfected cells
T1 sequence (O14791 28-398 S342G/I384M): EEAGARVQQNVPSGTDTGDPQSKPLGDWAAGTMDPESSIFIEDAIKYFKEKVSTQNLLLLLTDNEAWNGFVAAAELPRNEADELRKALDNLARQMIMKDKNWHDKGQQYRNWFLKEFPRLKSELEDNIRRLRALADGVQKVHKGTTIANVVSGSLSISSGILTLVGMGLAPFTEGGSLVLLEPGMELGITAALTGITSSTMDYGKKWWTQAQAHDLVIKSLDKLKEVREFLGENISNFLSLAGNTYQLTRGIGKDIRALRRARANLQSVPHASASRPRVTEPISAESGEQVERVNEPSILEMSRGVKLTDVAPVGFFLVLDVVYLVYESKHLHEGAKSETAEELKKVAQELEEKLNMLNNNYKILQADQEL
Assay: Acute APOL1 Thallium Assay with inducible stable clones of HEK 293 cells
Assay type: cell-based
Conditions: read-out: Thallium Assay (IC50)
Summary of the method: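 Readout: Tl+-triggered fluorescence, FLIPR, reflecting potassium flux through APOL1 pores after cells take up an AM-ester thallium indicator. Cells: HEK T-Rex stable clone G1 DC3.25, APOL1 G1 induced by tetracycline, seeded 26000 per well.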

[1] = HEK 293 T-Rex cells expressing G1 APOL1

Compound | IC50 (Table 24, Compounds 287 to 465) [µM] | IC50 [1] [µM]
C[C@H](CO)N(C)C(=O)[C@H]1C[C@H](c2c(-c3ccc(F)cc3)[nH]c3c(F)cc(F)cc32)C1 [Compound 190] |  | 0.25 to 1
O=C(NCCO)[C@H]1C[C@@H](c2c(-c3ccc(F)cc3)[nH]c3c(F)cc(F)cc32)C1 [Compound 237] |  | 0.25 to 1
O=C(N[C@@H]1CC[C@H](O)C1)[C@H]1C[C@H](c2c(-c3ccc(F)cc3)[nH]c3c(F)cc(F)cc32)C1 [Compound 180] |  | > 1
NC(=O)CNC(=O)[C@H]1C[C@@H](c2c(-c3ccc(F)cc3)[nH]c3c(F)cc(F)cc32)C1 [Compound 250] |  | > 1
CC(C)CC(NC(=O)[C@H]1C[C@@H](c2c(-c3ccc(F)cc3)[nH]c3c(F)cc(F)cc32)C1)C(N)=O (some centres unmarked) [Compound 255] |  | > 1
NC(=O)C(CO)NC(=O)[C@H]1C[C@@H](c2c(-c3ccc(F)cc3)[nH]c3c(F)cc(F)cc32)C1 (some centres unmarked) [Compound 259] |  | > 1
O=C(NCCn1cncn1)[C@H]1C[C@@H](c2c(-c3ccc(F)cc3)[nH]c3c(F)cc(F)cc32)C1 [Compound 264] |  | > 1
O=C(CNC(=O)[C@H]1C[C@H](c2c(-c3ccc(F)cc3)[nH]c3c(F)cc(F)cc32)C1)NCCO [Compound 231] |  | > 1
O=C(NCC1CC(F)(F)C1)[C@H]1C[C@@H](c2c(-c3ccc(F)cc3)[nH]c3c(F)cc(F)cc32)C1 [Compound 266] |  | > 1
O=C(NCCn1cccc1)[C@H]1C[C@@H](c2c(-c3ccc(F)cc3)[nH]c3c(F)cc(F)cc32)C1 [Compound 262] |  | > 1
O=C1NCCCC1NC(=O)[C@H]1C[C@@H](c2c(-c3ccc(F)cc3)[nH]c3c(F)cc(F)cc32)C1 (some centres unmarked) [Compound 249] |  | > 1
Cn1cnc(CNC(=O)[C@H]2C[C@@H](c3c(-c4ccc(F)cc4)[nH]c4c(F)cc(F)cc43)C2)c1 [Compound 261] |  | > 1
O=C(NC[C@H]1C[C@H](c2c(-c3ccc(F)cc3)[nH]c3c(F)cc(F)cc32)C1)N[C@H]1CC[C@H](O)C1 [Compound 419] | > 1 | 
O=C(CNC(=O)[C@H]1C[C@H](c2c(-c3ccc(F)cc3)[nH]c3c(F)cc(F)cc32)C1)NC[C@H](O)C(F)(F)F [Compound 234] |  | > 1
O=C([C@H]1C[C@H](c2c(-c3ccc(F)cc3)[nH]c3c(F)cc(F)cc32)C1)N1CCOC(CO)C1 (some centres unmarked) [Compound 151] |  | > 1
C[C@@H](O)CNC(=O)NC[C@H]1C[C@H](c2c(-c3ccc(F)cc3)[nH]c3c(F)cc(F)cc32)C1 [Compound 407] | > 1 | 
CC(C)C(CO)NC(=O)O[C@H]1C[C@H](c2c(-c3ccc(F)cc3)[nH]c3c(F)cc(F)cc32)C1 (some centres unmarked) [Compound 380] | > 1 | 
CC1(C)CC(C)(NC(=O)NC[C@H]2C[C@H](c3c(-c4ccc(F)cc4)[nH]c4c(F)cc(F)cc43)C2)C(=O)O1 (mixture of isomers) [Compound 392] | > 1 | 

Compound | IC50 (Table 24, Compounds 287 to 465) [µM] | IC50 [1] [µM]
C[C@H](O)CNC(=O)N(C)CC1CC(c2c(-c3ccc(F)cc3)[nH]c3c(F)cc(F)cc23)C1 (some centres unmarked) [Compound 430] | > 1 | 
O=C(NCc1ccc[nH]c1=O)C1CC(Cc2c(-c3ccc(F)cc3)[nH]c3c(F)cc(F)cc23)C1 (centres unmarked) [Compound 313] | > 1 | 
CCNC(=O)NC[C@H]1C[C@H](c2c(-c3ccc(F)cc3)[nH]c3c(F)cc(F)cc32)C1 [Compound 410] | > 1 | 
O=C(NC[C@H]1CC[C@@H](CO)O1)NC[C@H]1C[C@H](c2c(-c3ccc(F)cc3)[nH]c3c(F)cc(F)cc32)C1 [Compound 422] | > 1 | 
CC1(NC(=O)C2CC(Cc3c(-c4ccc(F)cc4)[nH]c4c(F)cc(F)cc34)C2)CCOC1 (mixture of isomers) [Compound 334] | > 1 | 
C[C@@H](O)CNC(=O)C1CC(Cc2c(-c3ccc(F)cc3)[nH]c3c(F)cc(F)cc23)C1 (some centres unmarked) [Compound 307] | > 1 | 
O=C(NC1(CCO)CC1)C1CC(Cc2c(-c3ccc(F)cc3)[nH]c3c(F)cc(F)cc23)C1 (centres unmarked) [Compound 311] | > 1 | 
CC(NC(=O)C1CC(Cc2c(-c3ccc(F)cc3)[nH]c3c(F)cc(F)cc23)C1)c1ccn(C)n1 (mixture of isomers) [Compound 312] | > 1 | 
O=C(CC1CC(c2c(-c3ccc(F)cc3)[nH]c3c(F)cc(F)cc23)C1)N[C@@H](CO)C(F)(F)F (some centres unmarked) [Compound 462] | > 1 | 
NC(=O)CN[C@H]1C[C@H](c2c(-c3ccc(F)cc3)[nH]c3c(F)cc(F)cc32)C1 [Compound 294] | > 1 | 
CC(O)[C@H](CO)NC(=O)[C@H]1C[C@@H](c2c(-c3ccc(F)cc3)[nH]c3c(F)cc(F)cc32)C1 (some centres unmarked) [Compound 270] |  | > 1
O=C(NCC1CC1)O[C@H]1C[C@H](c2c(-c3ccc(F)cc3)[nH]c3c(F)cc(F)cc32)C1 [Compound 370] | > 1 | 
CC1(O)CC(NC(=O)NC[C@H]2C[C@H](c3c(-c4ccc(F)cc4)[nH]c4c(F)cc(F)cc43)C2)C1 (some centres unmarked) [Compound 401] | > 1 | 
O=C(NCc1ncc[nH]1)O[C@H]1C[C@H](c2c(-c3ccc(F)cc3)[nH]c3c(F)cc(F)cc32)C1 [Compound 373] | > 1 | 
O=C(N[C@@H](CO)C(F)F)[C@H]1C[C@@H](c2c(-c3ccc(F)cc3)[nH]c3c(F)cc(F)cc32)C1 [Compound 276] |  | 0.25 to 1
O=C(NCC(O)C(F)F)C1CC(Cc2c(-c3ccc(F)cc3)[nH]c3c(F)cc(F)cc23)C1 (centres unmarked) [Compound 301] | > 1 | 
CC(C)NC(=O)CNC[C@H]1C[C@H](c2c(-c3ccc(F)cc3)[nH]c3c(F)cc(F)cc32)C1 [Compound 451] | > 1 | 

The next lines start with the values.

IC50 (Table 24, Compounds 287 to 465) [µM] | IC50 [1] [µM] | Compound
> 1 |  | CC(O)(CO)CNC(=O)O[C@H]1C[C@H](c2c(-c3ccc(F)cc3)[nH]c3c(F)cc(F)cc32)C1 (mixture of isomers) [Compound 378]
> 1 |  | O=C(NCC1(CO)CC1)C1CC(Cc2c(-c3ccc(F)cc3)[nH]c3c(F)cc(F)cc23)C1 (centres unmarked) [Compound 323]
> 1 |  | C[C@H](O)CNC(=O)C1CC(Cc2c(-c3ccc(F)cc3)[nH]c3c(F)cc(F)cc23)C1 (some centres unmarked) [Compound 300]
> 1 |  | O=C(NCC1CCOC1)C1CC(Cc2c(-c3ccc(F)cc3)[nH]c3c(F)cc(F)cc23)C1 (centres unmarked) [Compound 330]
> 1 |  | O=C(CC1CC(c2c(-c3ccc(F)cc3)[nH]c3c(F)cc(F)cc23)C1)NCCO (centres unmarked) [Compound 459]
> 1 |  | O=C(NCC1(O)CCCC1)C1CC(Cc2c(-c3ccc(F)cc3)[nH]c3c(F)cc(F)cc23)C1 (centres unmarked) [Compound 315]
> 1 |  | O=C(NC1CCOC1)O[C@H]1C[C@H](c2c(-c3ccc(F)cc3)[nH]c3c(F)cc(F)cc32)C1 (some centres unmarked) [Compound 382]
> 1 |  | O=C(NCc1ccc(=O)[nH]c1)C1CC(Cc2c(-c3ccc(F)cc3)[nH]c3c(F)cc(F)cc23)C1 (centres unmarked) [Compound 346]
> 1 |  | CN(CC1CC(c2c(-c3ccc(F)cc3)[nH]c3c(F)cc(F)cc23)C1)C(=O)NCc1cn(C)cn1 (centres unmarked) [Compound 427, 1-((3-(5,7-difluoro-2-(4-fluorophenyl)-1H-indol-3-yl)cyclobutyl)methyl)-1-methyl-3-((1-methyl-1H-imidazol-4-yl)methyl)urea]
0.25 to 1 |  | COCC(C)NC(=O)O[C@H]1C[C@H](c2c(-c3ccc(F)cc3)[nH]c3c(F)cc(F)cc32)C1 (mixture of isomers) [Compound 360]
> 1 |  | C[C@@H](CO)NC(=O)CC1CC(c2c(-c3ccc(F)cc3)[nH]c3c(F)cc(F)cc23)C1 (some centres unmarked) [Compound 458]
> 1 |  | Cn1cnc(CNC(=O)C2CC(Cc3c(-c4ccc(F)cc4)[nH]c4c(F)cc(F)cc34)C2)c1 (centres unmarked) [Compound 314]
> 1 |  | CN1CCN(C(=O)CNCC2CC(c3c(-c4ccc(F)cc4)[nH]c4c(F)cc(F)cc34)C2)CC1 (centres unmarked) [Compound 444]
> 1 |  | O=C1CC(CNC(=O)C2CC(Cc3c(-c4ccc(F)cc4)[nH]c4c(F)cc(F)cc34)C2)CN1 (centres unmarked) [Compound 336]
> 1 |  | CN(C(=O)NC[C@H]1C[C@H](c2c(-c3ccc(F)cc3)[nH]c3c(F)cc(F)cc32)C1)C1COCC1O (some centres unmarked) [Compound 415]
0.25 to 1 |  | O=C(NCCO)C1CC(Cc2c(-c3ccc(F)cc3)[nH]c3c(F)cc(F)cc23)C1 (centres unmarked) [Compound 299, 3-[[5,7-difluoro-2-(4-fluorophenyl)-1H-indol-3-yl]methyl]-N-(2-hydroxyethyl)cyclobutane-1-carboxamide]
> 1 |  | O=C(NCc1cnco1)C1CC(Cc2c(-c3ccc(F)cc3)[nH]c3c(F)cc(F)cc23)C1 (centres unmarked) [Compound 337]
0.25 to 1 |  | NC(=O)C(CO)NCC1CC(c2c(-c3ccc(F)cc3)[nH]c3c(F)cc(F)cc23)C1 (centres unmarked) [Compound 437]
> 1 |  | O=C(NC[C@H]1C[C@H](c2c(-c3ccc(F)cc3)[nH]c3c(F)cc(F)cc32)C1)NC1(CO)CC(F)(F)C1 [Compound 400]
> 1 |  | C[C@H](NC(=O)C1CC(Cc2c(-c3ccc(F)cc3)[nH]c3c(F)cc(F)cc23)C1)C(C)(C)O (some centres unmarked) [Compound 329]
> 1 |  | O=C(NC[C@H]1C[C@H](c2c(-c3ccc(F)cc3)[nH]c3c(F)cc(F)cc32)C1)N1CCC[C@@H]1CO [Compound 405]
> 1 |  | O=C(CC1CC(c2c(-c3ccc(F)cc3)[nH]c3c(F)cc(F)cc23)C1)NC1(CO)CCC1 (centres unmarked) [Compound 452, 2-[3-[5,7-difluoro-2-(4-fluorophenyl)-1H-indol-3-yl]cyclobutyl]-N-[1-(hydroxymethyl)cyclobutyl]acetamide]
> 1 |  | C[C@@H](O)CNC(=O)N[C@H]1C[C@H](c2c(-c3ccc(F)cc3)[nH]c3c(F)cc(F)cc32)C1 [Compound 296]
> 1 |  | O=C(NC1(CO)CC(F)(F)C1)C1CC(Cc2c(-c3ccc(F)cc3)[nH]c3c(F)cc(F)cc23)C1 (centres unmarked) [Compound 309]
